The record followed here is patent US9345793B2, “Compounds for binding to the platelet specific glycoprotein IIB/IIIA and their use for imaging of thrombi” (PIRAMAL IMAGING SA, priority 2011, dated 2016).

Like-named read-outs stand apart in the source and are kept apart here.

Data set [1] has as its target human GPIIb/IIIa receptor (Homo sapiens (Human), UniProt P05106+P08514). Put plainly: Affinity assay: displacement of tritiated reference compound from immobilized purified GPIIb/IIIa. The format is binding. The method, then: Affinity assay: In the first step human GPIIb/IIIa purified from human platelets was immobilized on a 96-well solid plate. After 48 hours the plates were washed and the unspecific binding sites were blocked with Roti®-Block. 2. In the next step, the plates were simultaneously incubated with a tritium labeled known GPIIb/IIIa binder (^3H) mixed with increasing concentrations of the novel small molecule compounds (inhibitor, ^19F). The higher the affinity of the inhibitor, the lower the bound fraction of the tritiated known GPIIb/IIIa binder (^3H) was. The fraction of tritiated compound (^3H), which is not displaced by inhibitor, was measured in a microplate scintillation counter.
Purified human glycoprotein IIb/IIIa (20 mM Tris-HCl, 0.1 M NaCl, 0.1% Triton X-100, 1 mM CaCl2, 0.05% NaN3, 50% Glycerol, pH 7.4) was purchased from Enzyme Research Laboratories Inc. (South Bend, Ind.). The GPIIb/IIIa receptor was diluted in phosphate-buffered saline (Dulbecco's Phosphate Buffered Saline (D-PBS(+)) with calcium and magnesium, GIBCO®, Invitrogen) with 0.01% bovine serum albumin (albumin from bovine serum—lyophilized powder, ≧96%, Sigma).
The GPIIb/IIIa receptor was immobilized 48 hours at least (100 μL per well, 48 to maximum 96 hours) on a 96-well solid plate (Immuno Plate MaxiSorp™, Nunc, Roskilde, Denmark) at 277 K to 280 K and at a concentration of 0.1 μg per well to 1 μg per well. As negative control one row of the plate (n=8) was incubated just with 2% bovine serum albumin (200 μper well, albumin from bovine serum—lyophilized powder, […], Sigma, diluted in D-PBS(+)). After washing three times with the wash buffer (230 μL per well, Dulbecco's Phosphate Buffered Saline (D-PBS (−)) contains no calcium or magnesium, GIBCO®, Invitrogen) residual exposed plastic and unspecific binding sites were blocked by incubating the plate with a special blocking solution (200 μL per well, Roti®-Block, Carl Roth GmbH Co KG, Karlsruhe) containing 2% bovine serum albumin (Albumin from bovine serum—lyophilized powder, ≧96%, Sigma) 1 hour at room temperature.
After washing three times with the wash buffer 50 μL of tritiated reference compound (60 nM, ^3H-labeled compound) and 50 μL of novel compound (inhibitor, ^19F) were simultaneously added to each well and incubated for 1 hour at room temperature. Several concentrations of each novel inhibitor (0.1, 1, 2, 5, 10, 20 50, 100, 200, 500, 1000, 2000, 5000, 10000 and 20000 nM) were investigated. At each concentration of inhibitor a fourfold determination was performed.
The maximum value of tritiated reference compound was determined without addition of inhibitor (n=8). To exclude unspecific binding of ^3H-reference compound wells without glycoprotein receptors were used as negative controls (n=12, identically treated just without GP IIb/IIIa receptors).
After one hour the plate was washed three times with phosphate-buffered saline (200 μL per well, Dulbecco's Phosphate Buffered Saline (D-PBS(+)), GIBCO®, Invitrogen). Following 140 μL of liquid scintillation cocktail (MicroScint™ 40 aqueous, Perkin Elmer) was added to each well. After 15 min at room temperature the plates were measured at the microplate scintillation counter (TopCount NXT v2.13, Perkin Elmer, Packard Instrument Company).
In the first step human glycoprotein IIb/IIIa, which is purified from human platelets, was immobilized on a 96-well solid plate. After 48 hours at least the plates were washed and the unspecific binding sites were blocked with Roti®-Block. In the next step, the plates were simultaneously incubated with a tritium labeled reference compound and the novel small molecule compound (inhibitor). The higher the affinity of the inhibitor, the smaller is the bound fraction of reference compound. The fraction of tritiated reference compound, which is not displaced by inhibitor, was measured at a microplate scintillation counter.

Data set [2] in a line: Plasma protein binding by equilibrium dialysis, monkey plasma. The format is in vitro ADME. The note with it: plasma (10% in buffer), Cynomolgus, read-out: Fu (Mari). As for the experimental part: (§1) The determination of the plasma protein binding of compounds was performed by means of an equilibrium dialysis in a 96-well HT plate. Solutions of test compound (0.3 μM and 3 μM) were prepared in buffer (50 mM phosphate buffer) and 10% plasma. A 96 well HT dialysis plate (Teflon) was assembled so that each well was divided in two compartments by a semi-permeable cellulose membrane (regenerated Cellulose, MWCO 12-14K). The phosphate buffer solution (150 μL) was added to one side of the membrane and the plasma solution to the other side (150 μL). The compounds were added to the plasma solution side and were incubated at 37 degree. The unbound fraction of the compound could pass through the membrane and equilibrium between the two sides could be reached (6-8 h, 37° C.). Both solutions were analyzed for each compound (plasma-free and plasma-containing) by LC-MS. Both solutions for each compound were diluted with buffer or plasma to reach the same matrix (10% plasma) for analysis and were precipitated by the addition of methanol. The fraction unbound (Fu) was calculated as the quotient of the equilibrium concentrations of the compound in plasma-free and plasma-containing solution.

Data set [3] is described as follows: Plasma protein binding by equilibrium dialysis, human plasma. The note with it: plasma (10% in buffer), Caucasian, read-out: Fu (Mari). The data set is classed as in vitro ADME. As for the experimental part: as §1
A general note: In equilibrium dialysis free small molecules cross a membrane that holds back macromolecules.

Another data set concerns human thrombi. Kind of data set: Ex vivo blood flow model: binding to human thrombi, incl. competition with cold compound. As to conditions: ± SEM; for in vitro clot-to-blood ratio / Accumulation Thrombus: 3 minutes post-injection of 18F-labeled compound; for Accumulation Thrombus: without cold compound; for Thrombus competition: cold compound added with hot compound, final plasma concentration 2.8 μM, 3 minutes. The source says:
The binding of compounds to thrombi was further investigated in an ex vivo blood flow model similar to that described in “Wakhloo, A. K. et al. Thrombus and stroke 2008, in vitro models 57-66” but modified with regard to thrombus development. Briefly, an open handmade tube-set consisting of tygon-tubes (Tygon R-1000, part N^O AAU00007: I.D. 3.2 mm, O.D. 6.4 mm, Saint Gobain Performance Plastics North America), intermediate tubes (Intrafix® Infusion set, B. Braun, Melsungen, Germany) an open reservoir (10 mL Combitip, Eppendorf) and a chamber made of a piece of polyethylene-Tube, ([…] Polyethylene Tubing, Clay Adams, PE160, length: 6.5 cm) containing a loop of a roughened thread (fishing line: Okuma UltraMax whitefish, diameter: 0.14 mm, length: 5 cm; sandpaper: CAMI Grit designation: 600, CP918a, VSM) was used for thrombus formation. The connection between the intermediate tube and the thrombus chamber was made by trimmed tips (epTIPS, 200 μL, Eppendorff, Hamburg/Germany). The Reservoir and the thrombus chamber were fixed by clamps and stands. A peristaltic-pump (Minipuls 3, Gilson, Middelton/USA) was used to pump the blood around thereby adjusting the flow in the middle of the thrombus chamber to 70-90 cm per second, which was monitored by ultrasound Doppler measurement (Vevo 770 High-Resolution In Vivo Micro-Imaging System, VisualSonics, TorontoOntario, Canada; Scanhead: RMV 704, 40 MHz). The volume of the entire tube-set was 7.5 or 15 mL.
For each experiment fresh blood was taken from a volunteer using 10 mL citrate-tubes (Sarstedt S-Monovette 02.1067.001, 10 mL, Citrate 3.13%) and immediately laid into the turning-device of an incubator at a temperature of 37° C. (Heraeus miniTherm CTT with integrated rotation- and turning device, turning speed: 19 rotations per minute, Heraeus Instruments GmbH, Hanau/Germany). As needed, two tubes were taken out of the turning-device and 15 mL were transferred to a 20 mL Syringe (Omnifix®, B. Braun, Melsungen/Germany) and gently mixed with 0.75 mL CaCl2-Solution before the peristaltic pump was started and the whole content of the syringe was transferred into the reservoir of the tube-set via a cell strainer (BD Falcon™ cell strain, 40 μm, BD, Franklin Lakes, N.J. USA). After 7 minutes 1 MBq or 0.5 MBq (15 mL or 7.5 mL) of the compound was added to the reservoir by means of a pipette, thereby mixing the content gently with the tip of the pipette. The blood was left circulating for another 3 minutes. Then, the pump was stopped, aliquots were taken from the blood and the thrombus together with the roughened thread was removed from the thrombus-chamber before both was weighted and measured in a gamma counter (Automatic Gamma Counter Wizard^2 3, Perkin Elmer). Then the thrombus together with the thread was incubated in Plasmin-solution (Plasmin from Human Plasma, Sigma Aldrich, stock-solution: 500 μg in 500 μL 150 μM Tris-buffer (pH 7.8), 20 μL stock-solution to 230 μL saline solution 0.9%) for 48 hours to separate the platelets from the thread and to determine the netto weight of the thrombus. Finally the activity of the compound in blood and thrombus as well as the ratio between both was determined (cpm/weight [mg]).
To verify the specificity of the compound, a competition experiment was conducted in which the cold compound was added to the reservoir together with the hot compound. The final plasma concentration of the cold compound was 2.8 μM.

Chain of human GPIIb/IIIa receptor (P08514 32-887): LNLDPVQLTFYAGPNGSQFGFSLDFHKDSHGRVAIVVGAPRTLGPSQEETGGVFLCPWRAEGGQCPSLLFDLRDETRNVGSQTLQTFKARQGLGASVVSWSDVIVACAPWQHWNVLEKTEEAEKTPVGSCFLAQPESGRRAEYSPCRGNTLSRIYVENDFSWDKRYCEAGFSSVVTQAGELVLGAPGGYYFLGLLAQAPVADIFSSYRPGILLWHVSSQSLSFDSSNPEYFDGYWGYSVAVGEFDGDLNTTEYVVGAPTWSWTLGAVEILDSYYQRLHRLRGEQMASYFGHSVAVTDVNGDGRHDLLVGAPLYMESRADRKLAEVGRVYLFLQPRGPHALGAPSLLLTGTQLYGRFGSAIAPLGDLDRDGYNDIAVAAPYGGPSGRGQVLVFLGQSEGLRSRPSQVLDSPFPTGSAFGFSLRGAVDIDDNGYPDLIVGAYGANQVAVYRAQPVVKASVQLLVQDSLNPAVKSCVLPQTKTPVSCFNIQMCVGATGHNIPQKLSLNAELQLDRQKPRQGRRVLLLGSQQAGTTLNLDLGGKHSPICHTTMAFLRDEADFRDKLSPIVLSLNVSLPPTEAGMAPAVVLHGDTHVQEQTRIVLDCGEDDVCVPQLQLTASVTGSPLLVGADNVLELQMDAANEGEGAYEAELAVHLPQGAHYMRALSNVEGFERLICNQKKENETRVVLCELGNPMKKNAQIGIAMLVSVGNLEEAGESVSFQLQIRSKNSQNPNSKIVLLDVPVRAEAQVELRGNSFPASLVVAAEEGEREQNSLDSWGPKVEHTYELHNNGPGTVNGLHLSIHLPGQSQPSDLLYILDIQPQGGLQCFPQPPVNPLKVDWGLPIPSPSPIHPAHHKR
Chain of human GPIIb/IIIa receptor (P08514 891-1039 partner): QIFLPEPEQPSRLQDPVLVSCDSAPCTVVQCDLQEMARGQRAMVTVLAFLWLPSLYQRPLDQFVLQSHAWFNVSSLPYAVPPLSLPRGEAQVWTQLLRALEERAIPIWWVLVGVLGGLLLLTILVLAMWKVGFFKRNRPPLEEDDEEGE
Chain of human GPIIb/IIIa receptor (P05106 27-788): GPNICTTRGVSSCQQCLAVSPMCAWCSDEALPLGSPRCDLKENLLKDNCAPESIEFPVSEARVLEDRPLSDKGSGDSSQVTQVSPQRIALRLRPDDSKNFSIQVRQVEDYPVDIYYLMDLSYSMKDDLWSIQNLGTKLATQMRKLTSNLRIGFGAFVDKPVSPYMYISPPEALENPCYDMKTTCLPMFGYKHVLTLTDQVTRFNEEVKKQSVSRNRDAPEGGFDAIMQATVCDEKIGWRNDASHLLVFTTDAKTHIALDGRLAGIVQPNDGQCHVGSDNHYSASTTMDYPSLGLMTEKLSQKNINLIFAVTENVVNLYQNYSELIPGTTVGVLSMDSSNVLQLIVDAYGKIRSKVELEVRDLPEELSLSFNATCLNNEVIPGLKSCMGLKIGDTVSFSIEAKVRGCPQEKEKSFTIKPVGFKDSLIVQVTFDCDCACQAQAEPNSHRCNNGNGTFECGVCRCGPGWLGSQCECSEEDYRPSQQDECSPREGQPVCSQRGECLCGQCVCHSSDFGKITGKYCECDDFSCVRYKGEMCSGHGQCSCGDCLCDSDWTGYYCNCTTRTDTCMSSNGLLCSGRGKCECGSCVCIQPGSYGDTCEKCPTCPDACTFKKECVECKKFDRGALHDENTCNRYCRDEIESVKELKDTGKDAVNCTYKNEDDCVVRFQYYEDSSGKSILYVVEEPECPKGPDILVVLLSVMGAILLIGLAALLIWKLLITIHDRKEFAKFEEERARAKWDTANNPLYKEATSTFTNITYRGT

The term IC50 denotes the point on the concentration scale where inhibition reaches its midpoint. `O=C(O)C[C@H](NC(=O)[C@@H]1CCCN(C(=O)CCC2CCNCC2)C1)c1cncc(-c2ccc(OCCF)cc2)c1` [Example 7, (3S)-3-{5-[4-(2-Fluoroethoxy)phenyl]pyridin-3-yl}-3-[({(3R)-1-[3-(piperidin-4-yl)propanoyl]piperidin-3-yl}carbonyl)amino]propanoic acid]: the IC50 in data set [1] (19F compounds vs 60 nM 3H-labeled reference compound, 1 hour at room temperature, read-out: IC50 human) turned out to be 0.011 µM; in data set [1] (values repeated beside the 18F-compound, read-out: IC50 human (corresponding 19F-compound, Table 2)), 0.011 µM. For the same molecule, the fraction unbound at 0.3 μM was 0.54 in data set [2] (0.3 μM) and 0.5 in data set [3] (0.3 μM). Also, the fraction unbound at 3 μM is 0.58 in data set [2] (3 μM) and 0.54 in data set [3] (3 μM).
Take `O=C(O)C[C@H](NC(=O)[C@@H]1CCCN(C(=O)CCC2CCNCC2)C1)c1cccc(OCC[18F])c1` [Example 38, (3S)-3-[3-(2-[^18F]Fluoroethoxy)phenyl]-3-[({(3R)-1-[3-(piperidin-4-yl)propanoyl]piperidin-3-yl}carbonyl)amino]propanoic acid]: in the data set on human thrombi, the “in vitro clot-to-blood ratio” value is recorded as 19 ± 1 (n = 9), the “Accumulation Thrombus” value was 41 ± 3 (n = 5) 10^3 cpm/mg and the Thrombus competition is 10 ± 1 (n = 5) 10^3 cpm/mg.
The like results for `O=C(O)C[C@H](NC(=O)[C@@H]1CCCN(C(=O)CCC2CCNCC2)C1)c1ccc(OCC[18F])cc1` [Example 39, (3S)-3-[4-(2-[^18F]Fluoroethoxy)phenyl]-3-[({(3R)-1-[3-(piperidin-4-yl)propanoyl]piperidin-3-yl}carbonyl)amino]propanoic acid] were, in that order, 34 ± 4 (n = 4), 86 ± 9 (n = 6) 10^3 cpm/mg and 12 ± 1 (n = 6) 10^3 cpm/mg.
The like results for `N#Cc1cc(-c2cncc([C@H](CC(=O)O)NC(=O)[C@@H]3CCCN(C(=O)CCC4CCNCC4)C3)c2)ccc1[18F]` [Example 42, (3S)-3-[5-(3-Cyano-4-[^18F]fluorophenyl)pyridin-3-yl]-3-[({(3R)-1-[3-(piperidin-4-yl)propanoyl]piperidin-3-yl}carbonyl)amino]propanoic acid] were, in that order, 58 ± 10 (n = 6), 39 ± 5 (n = 6) 10^3 cpm/mg and 5 ± 1 (n = 6) 10^3 cpm/mg.
The like results for `O=C(O)C[C@H](NC(=O)[C@@H]1CCCN(C(=O)CCC2CCNCC2)C1)c1cncc(CCc2ccc(OCC[18F])cc2)c1` [Example 46, (3S)-3-(5-{2-[4-(2-[^18F]Fluoroethoxy)phenyl]ethyl}pyridin-3-yl)-3-[({(3R)-1-[3-(piperidin-4-yl)propanoyl]piperidin-3-yl}carbonyl)amino]propanoic acid] were, in that order, 191 ± 30 (n = 4), 285 ± 76 (n = 4) 10^3 cpm/mg and 17 ± 1 (n = 4) 10^3 cpm/mg.
`O=C(O)C[C@H](NC(=O)[C@@H]1CCCN(C(=O)CCC2CCNCC2)C1)c1cncc(CCc2cccc(OCC[18F])c2)c1` [Example 47, (3S)-3-(5-{2-[3-(2-[^18F]Fluoroethoxy)phenyl]ethyl}pyridin-3-yl)-3-[({(3R)-1-[3-(piperidin-4-yl)propanoyl]piperidin-3-yl}carbonyl)amino]propanoic acid]: in the data set with human thrombi, the “in vitro clot-to-blood ratio” value was 178 ± 48 (n = 4), the “Accumulation Thrombus” value is listed as 258 ± 59 (n = 4) 10^3 cpm/mg and the Thrombus competition is on record as 14 ± 2 (n = 3) 10^3 cpm/mg.
